Data published in BindingDB's records for patent US11964990 (Abbvie, 2024).

Tests used:
[1] = molecular target: Apoptosis regulator Bcl-2 (Homo sapiens, UniProt P10415); assay: Time Resolved-Fluorescence Resonance Energy Transfer (TR-FRET) Assay
Method: (§1) [Bcl-2 protein or Bcl-xL protein], [Probe], [Antibody],Protein Probe nM nM Antibody nMGST- F-Bak 1 100 Tb-anti- 1Bcl- Acetyl-(SEQ GST 2 ID NO: 3)-NH2The samples were then mixed on a shaker for 1 minute and equilibrated for an additional 3 hours at room temperature. For each assay plate, a probe/antibody and protein/antibody/probe mixture were included as a negative and a positive control, respectively. Fluorescence was measured on the Envision (Perkin Elmer) using a 340/35 nm excitation filter and 520/525 (F-Bak) and 495/510 nm (Tb-labeled anti-GST antibody) emission filters. Inhibition constants (Ki) were determined using Wang's equation (Wang FEBS Lett. 1995, 360, 111-114). The TR-FRET assay can be performed in the presence of varying concentrations of human serum (HS) to determine apparent half maximal inhibitory concentration (IC50) after HS protein binding.

Bcl-2-like protein 1 = Bcl-2-like protein 1 (Homo sapiens, UniProt Q07817); assay: as above
Method: as §1

Sequence of Apoptosis regulator Bcl-2 (P10415 whole entry): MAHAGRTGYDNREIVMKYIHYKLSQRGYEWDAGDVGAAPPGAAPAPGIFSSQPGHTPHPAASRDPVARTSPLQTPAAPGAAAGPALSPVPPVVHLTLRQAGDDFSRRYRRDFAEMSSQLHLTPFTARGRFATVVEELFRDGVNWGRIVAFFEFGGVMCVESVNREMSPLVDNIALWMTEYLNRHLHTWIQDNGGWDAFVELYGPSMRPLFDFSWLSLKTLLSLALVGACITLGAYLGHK
Sequence of Bcl-2-like protein 1 (Q07817 whole entry): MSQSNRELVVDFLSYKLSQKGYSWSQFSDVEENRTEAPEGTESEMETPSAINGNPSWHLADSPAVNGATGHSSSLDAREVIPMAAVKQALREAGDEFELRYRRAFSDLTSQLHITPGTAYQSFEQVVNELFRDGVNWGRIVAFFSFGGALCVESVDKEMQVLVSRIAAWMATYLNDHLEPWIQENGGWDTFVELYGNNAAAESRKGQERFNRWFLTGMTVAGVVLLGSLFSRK

C[C@@H]1CC[C@H](CNc2ccc(S(=O)(=O)NC(=O)c3ccc(N4CCN5CC6=C(c7ccc(Cl)cc7)CC(C)(C)C[C@H]6OCCCOC[C@@H]5C4)cc3N3CCCOc4nc5[nH]ccc5cc43)cc2[N+](=O)[O-])OC1 [US11964990, Example 21]
Ki [1]: 0.521 nM | Ki (Bcl-2-like protein 1): 58.9 nM
